Measurements: patent US5672586A, “Herpes ribonucleotide reductase inhibitors” (Bio-Mega/Boehringer Ingelheim Research, Inc., priority 1995, dated 1997)
Like-named read-outs stand apart in the source and are kept apart here.

What was measured:
[1] = target: T1, HSV-1 ribonucleotide reductase (Human herpesvirus 1, UniProt P08543); test: Inhibition of Herpes Simplex Virus (HSV-1) ribonucleotide reductase; assay type: biochemical; conditions: partially purified enzyme from HSV-1 strain F infected BHK-21/C13 cells; mean of four assays; read-out: IC50 (concentration producing 50% of the maximal inhibition of enzyme activity)
T1 construct: HSV-1 ribonucleotide reductase (partially purified) was obtained from quiescent BHK-21/Cl13 cells infected with strain F HSV-1 virus; made in house; host or cells: quiescent BHK-21/C13 hamster cells infected with HSV-1 strain F; native viral enzyme, partially purified
T1 sequence (P08543 whole entry): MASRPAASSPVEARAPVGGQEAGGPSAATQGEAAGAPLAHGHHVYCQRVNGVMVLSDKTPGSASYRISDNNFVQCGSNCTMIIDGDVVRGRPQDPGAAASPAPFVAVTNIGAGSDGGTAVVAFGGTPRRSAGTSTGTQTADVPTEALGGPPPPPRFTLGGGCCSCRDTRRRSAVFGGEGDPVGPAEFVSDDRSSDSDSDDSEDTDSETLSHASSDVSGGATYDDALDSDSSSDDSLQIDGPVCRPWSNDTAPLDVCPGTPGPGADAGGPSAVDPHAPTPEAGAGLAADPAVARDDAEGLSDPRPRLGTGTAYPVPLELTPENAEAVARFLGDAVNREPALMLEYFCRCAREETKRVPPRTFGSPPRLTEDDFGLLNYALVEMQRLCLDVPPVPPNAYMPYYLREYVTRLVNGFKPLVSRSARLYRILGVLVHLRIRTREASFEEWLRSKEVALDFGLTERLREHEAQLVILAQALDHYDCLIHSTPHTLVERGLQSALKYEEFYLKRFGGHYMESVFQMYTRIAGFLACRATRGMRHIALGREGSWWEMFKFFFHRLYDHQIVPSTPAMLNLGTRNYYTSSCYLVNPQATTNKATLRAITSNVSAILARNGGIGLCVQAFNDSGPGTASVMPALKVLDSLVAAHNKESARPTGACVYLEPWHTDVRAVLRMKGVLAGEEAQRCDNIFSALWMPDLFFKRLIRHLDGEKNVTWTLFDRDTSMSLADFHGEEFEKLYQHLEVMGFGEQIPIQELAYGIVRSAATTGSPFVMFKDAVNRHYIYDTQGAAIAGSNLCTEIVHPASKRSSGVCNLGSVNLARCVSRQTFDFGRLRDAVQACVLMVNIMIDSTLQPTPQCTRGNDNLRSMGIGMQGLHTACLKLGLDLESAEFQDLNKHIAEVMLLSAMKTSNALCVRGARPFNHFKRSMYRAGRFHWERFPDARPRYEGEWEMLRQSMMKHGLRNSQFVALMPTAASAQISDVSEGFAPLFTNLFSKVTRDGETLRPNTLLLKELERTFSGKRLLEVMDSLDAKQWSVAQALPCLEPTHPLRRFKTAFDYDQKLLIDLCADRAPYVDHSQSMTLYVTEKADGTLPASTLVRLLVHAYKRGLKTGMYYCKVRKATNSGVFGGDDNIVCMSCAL
From the text: HSV-1 ribonucleotide reductase (partially purified) was obtained from quiescent BHK-21/Cl13 cells infected with strain F HSV-1 virus at 10 plaque forming units/cell as described by E. A. Cohen et al., J. Gen. Virol., 66, 733 (1985).
The assay described by P. Gaudreau et al., J. Biol, Chem., 262, 12413 (1987), is used to evaluate the capability of the compounds of formula 1 to inhibit HSV-1 ribonucleotide reductase activity. The assay results are expressed as the concentration of the compound producing 50% of the maximal inhibition (IC50) of enzyme activity. The number of units of the enzyme preparation used in each assay was constant, based on the specific activity of the enzyme preparation. The results are relative to the activity obtained in control experiments without the test compound and represent the means of four assays that varied less than 10% with each other.

[2] = test system: HSV-1 strain F; test: Inhibition of HSV-1 replication in cell culture (BHK-21 cells, ELISA of glycoprotein C), strain F; assay type: cell-based, Herpes simplex virus type 1; conditions: 24 hours incubation, read-out: EC50 (inhibition of viral replication)
Method: BHK-21 cells clone 13 (ATCC CCL10) were incubated for two days in 850 cm^2 roller bottles (2×10^7 cells/bottle) with alpha-MEM medium (Gibco Canada Inc., Burlington, Ontario, Canada) supplemented with 8% (v/v) fetal bovine serum (FBS, Gibco Canada, Inc.). The cells were trypsinized and then transferred to fresh media in a 96-well microtiter plate at a density of 50,000 cells per well in 100 μL. The cells were incubated at 37° for a period of 6 hours to allow adhesion to the plate. The cells then were washed once with 100 μL of alpha-MEM supplemented with 0.5% FBS (v/v) and incubated with 100 μL of the same media for 3 days. After this period of serum starvation, the low serum media was removed. The cells were washed once with 100 μL BBMT and incubated for two hours in 100 μL of the same media. {Note: BBMT medium is described by P. Brazeau et al., Proc. Natl. Acad. Sci. U.S.A., 79, 7909 (1980).} Thereafter, the cells were infected with HSV-1 strain F or KOS (multiplicity of infection =0.05 PFU/cell) in 50 μL of BBMT medium. Following one hour of virus absorption at 37°, the media was removed and the cells were washed with BBMT (2×100 μL). The cells were incubated with or without 100 μL of the appropriate concentration of test reagent in BBMT medium. After 24 hours of incubation at 37°, the extent of viral replication was determined by an ELISA assay; for instance, the following assay that detects the late glycoprotein C of HSV-1. Cells were fixed in a microtiter plate with 100 μL of 0.063% glutaraldehyde in phosphate buffered saline for 30 minutes at room temperature. The microtiter plate was then washed once with casein blocking solution and blocked with 200 μL of the same solution for one hour at room temperature. […] Color development was monitored at 450 nm using a microplate spectrophotometer. […] The following TABLE II provides examples of the results obtained when compounds of formula 1 were evaluated according to the cell culture assay (HSV-1 strain F) of this example.

[3] = test system: HSV-1 KOS strain; test: Synergistic studies of acyclovir and the title compound of example 9 in the cell culture assay, HSV-1 KOS strain; assay type: cell-based, Herpes simplex virus type 1; conditions: for EC50: MOI = 0.05 PFU/cell
Method: BHK-21 cells clone 13 (ATCC CCL10) were incubated for two days in 850 cm^2 roller bottles (2×10^7 cells/bottle) with alpha-MEM medium (Gibco Canada Inc., Burlington, Ontario, Canada) supplemented with 8% (v/v) fetal bovine serum (FBS, Gibco Canada, Inc.). The cells were trypsinized and then transferred to fresh media in a 96-well microtiter plate at a density of 50,000 cells per well in 100 μL. The cells were incubated at 37° for a period of 6 hours to allow adhesion to the plate. The cells then were washed once with 100 μL of alpha-MEM supplemented with 0.5% FBS (v/v) and incubated with 100 μL of the same media for 3 days. After this period of serum starvation, the low serum media was removed. The cells were washed once with 100 μL BBMT and incubated for two hours in 100 μL of the same media. {Note: BBMT medium is described by P. Brazeau et al., Proc. Natl. Acad. Sci. U.S.A., 79, 7909 (1980).}
Thereafter, the cells were infected with HSV-1 strain F or KOS (multiplicity of infection =0.05 PFU/cell) in 50 μL of BBMT medium. Following one hour of virus absorption at 37°, the media was removed and the cells were washed with BBMT (2×100 μL). The cells were incubated with or without 100 μL of the appropriate concentration of test reagent in BBMT medium. After 24 hours of incubation at 37°, the extent of viral replication was determined by an ELISA assay; for instance, the following assay that detects the late glycoprotein C of HSV-1.
Cells were fixed in a microtiter plate with 100 μL of 0.063% glutaraldehyde in phosphate buffered saline for 30 minutes at room temperature. The microtiter plate was then washed once with casein blocking solution and blocked with 200 μL of the same solution for one hour at room temperature. Thereafter, 100 μL of mAB Cll recognizing HSV-1 gC envelope protein [see E. Trybala et al., Journal of General Virology, 75, 743 (1994)] was added to each well for two hours at room temperature. The plate was washed three times with phosphate buffered saline containing 0.05% polyoxyethylene (20) sorbitan monooleate. The cells were and incubated with 100 μL of sheep anti-mouse IgC horseradish peroxidase for one hour at room temperature in the dark.
The plate then was washed three times with 200 μL of the above-noted phosphate buffer saline preparation, and then once with 0.1M sodium citrate (pH 4.5). Thereafter, 100 μL of orthophenylenediamine dihydrochloride (OPD, Gibco, Canada Inc.) was added to each well. The plate was agitated on a microplate shaker for 30 minutes in the dark. Color development was monitored at 450 nm using a microplate spectrophotometer.
SAS was used to calculate % inhibition of viral replication and to generate ECl50 values.
The results are illustrated in accompanying FIG. 1.
More explicitly with reference to the isobole method, this method requires experimental data generated for the two test compounds, each alone and in different combinations. In this way selected concentrations of the title compound of example 9 (EC5, EC10, EC20 and EC30) were added to a given concentration of ACV and the EC50 's were evaluated as described previously. For these experiments, the EC5, EC10, EC20 and EC30 of the title compound of example 9 (i.e. the test compound) were derived from inhibition curves previously obtained. An isobologram is generated using for the Y axis a value termed FEC60 (ACV) (which is the ratio of the concentration of ACV required to inhibit HSV replication by 60% in the presence of a fixed concentration of the test compound to the concentration required in the absence of the test compound). This is plotted against a term representing the ratio of the fixed concentration of the test compound to the concentration of the test compound that reduced inhibition of HSV replication in the absence of ACV (the X axis).
The following TABLE III is illustrative of results obtained when combinations of ACV and the title compound of example 9 (TC) were evaluated for their antiherpes activity against HSV-1. […]

(3-cyclohexyl-2 (R), 3 (R)-dimethyl-1-oxopropyl)-(N-Me) Val-Tbg-CH2 --(R)--CH (CH2 C(O) CMe3)C(O)-Asp (cyPn)-NH--(R)--CH (Et) CMe3 [R^1 and R^2 =Me]
IC50 [1]: 191 nM | EC50 [2]: 200 nM

CC[C@@H](NC(=O)[C@@H](NC(=O)[C@@H](CC(=O)[C@@H](NC(=O)[C@H](C(C)C)N(C)C(=O)[C@H](C)CC1CCCCC1)C(C)(C)C)CC(=O)C(C)(C)C)C1(C(=O)O)CCCC1)C(C)(C)C [R^1 =H and R^2 =Me, (3-Cyclohexyl-2(R)-methyl-1-oxopropyl)-(N--Me) Val-Tbg-CH2 --(R)--CH(CH2 C(O)CMe3)--C (O)-Asp(cyPn)-NH--(R)--CH(Et)CMe3]
IC50 [1]: 147 nM | EC50 [2]: 400 nM | EC50 ([3]; compound alone, read-out: EC50): 473 nM | Effect of combining with acyclovir on the EC50 of acyclovir (synergy, isobole method) ([3]; increasing concentrations of the title compound of example 9): proportional lowering of the EC50 of acyclovir

{3-cyclohexyl-2(S)-(1-methylethyl)-1-oxopropyl}-(N-Me) Val-Tbg-CH2 --(R)--CH(CH2 C(O)CMe3)C(O)-Asp(cypn)-NH--(R)--CH (Et)CMe3 [R^1 =H and R^2 =CHMe2]
IC50 [1]: 123 nM | EC50 [2]: 200 nM

Nc1nc2c(ncn2COCCO)c(=O)[nH]1 [ACV, acyclovir]
EC50 ([3]; ACV + 0.05 μM of TC, read-out: EC50 of ACV in combination): 6300 nM | EC50 ([3]; ACV + 0.1 μM of TC, read-out: EC50 of ACV in combination): 3200 nM | EC50 ([3]; ACV + 0.15 μM of TC, read-out: EC50 of ACV in combination): 1790 nM | EC50 ([3]; ACV + 0.2 μM of TC, read-out: EC50 of ACV in combination): 1790 nM | EC50 ([3]; ACV + 0.3 μM of TC, read-out: EC50 of ACV in combination): 1000 nM | EC50 ([3]; ACV + 0.4 μM of TC, read-out: EC50 of ACV in combination): 500 nM | EC50 ([3]; compound alone, read-out: EC50): 6950 nM
